In patent US20240208961A1, “EIF4E INHIBITORS AND USES THEREOF” (PIC Therapeutics, Inc., priority 2022, published 2024):
Like-named read-outs stand apart in the source and are kept apart here.

Tests used:
[1] = Pharmacokinetic study of I-11 in female BALB/c mice (Example 4); type: in vivo, Balb/c mouse; settings: mouse, plasma; for concentration at 0.5 hr / concentration at 1 hr / concentration at 2 hr / concentration at 4 hr / concentration at 8 hr / concentration at 24 hr / concentration at 0.083 hr / concentration at 0.25 hr: female, BALB/c, po
Description: Pharmacokinetic Study in Female BALB/c Mice: Balb/c mouse, 17-19 g, 8-10 weeks, female, N=27, purchased from JH Laboratory Animal Co. LTD
Fasted overnight and fed at 4 hr post dosing.
Animals dosed with sampling at 0.083, 0.25, 0.5, 1, 2, 4, 8, 24 hr post dose. 8 time points. Semi-serial bleeding for plasma only. The animals were restrained manually at the designated time points. Approx. 110 μL of blood/time point was taken from the animals via facial vein into tubes with K2EDTA. Blood sample was centrifuged at 4° C. (2000 g, 5 min) to obtain plasma within 15 m after sample collection. Put on wet ice, then plasma samples were stored at approximately −70° C. until analysis.
For oral gavage, compound was dosed as a suspension in […] carboxymethyl cellulose (CMC), 0.2% Tween 80 in water. Compound was orally dosed at 50 mg/Kg, at 100 mg/Kg.
For IV dosing, compound was dissolved into a solution of […], […] HS 15 and 90% Saline. Compound was IV dosed at 5 mg/Kg.
Plasma samples were analyzed for I-11 using LC-MS using a calibration curve of known concentrations.
FIG. 1 describes the mean plasma concentration-time profiles of I-11 after single IV dose of 5 mg/kg, PO dose of 50 mg/kg and 100 mg/kg in female Balb/c mice (N=3/time point). • Note: • 1. […] The IV dosing solutions were prepared in 5% DMSO+5% Solutol HS15+90% Saline. The PO dosing solutions were prepared in 1% CMC-Na+0.2% Tween 80 in water. • 3. BQL=Below quantifiable limit of 3.00 ng/mL for I-11 in female Balb/c mouse plasma samples. • 4. PK parameters were estimated by non-compartmental model using WinNonlin 8.2. If the adjusted rsq (linear regression coefficient of the concentration value on the terminal phase) is less than 0.9, T1/2 might not be accurately estimated. • 5. F value was determined by the following equation: • If AUClast/AUCINF>80%:
F=(AUCINF-EX×DOSEIV)/(AUCINF-IV×DOSEEX)[…] • If AUClast/AUCINF<80% or AUCINF not available:
F=([…])/(AUClast-IV×DOSEEX)[…] • 6. NA: Not available.

[2] = test system: 4E-BP1; test: Hyperphosphorylation of 4E-BP1 in multiple myeloma cell line MM.1R (FIG. 11A); type: cell-based; settings: MM.1R cells, 2 hours
[3] = test system: MCL-1 protein; test: MCL-1 protein (eIF4E regulated) levels in multiple myeloma cell line MM.1R (FIG. 11B); type: cell-based; settings: MM.1R cells, 2 hours
[4] = 50 mg/kg, PO 50 mg/kg, read-out: Plasma concentration Individual
[5] = 50 mg/kg, PO 50 mg/kg, read-out: Plasma concentration Mean
[6] = 100 mg/kg, PO 100 mg/kg, read-out: Plasma concentration Individual
[7] = 100 mg/kg, PO 100 mg/kg, read-out: Plasma concentration Mean

SMILES: CC(C)Cc1sc(Nc2ncc(-c3cccs3)cc2C(=O)O)nc1C(C)(C)C [Compound I-11]
- concentration at 0.5 hr [1, 4]: 3830 ng/mL
- concentration at 0.5 hr [1, 5]: 5850 ng/mL
- concentration at 1 hr [1, 4]: 8760 ng/mL
- concentration at 1 hr [1, 5]: 7120 ng/mL
- concentration at 2 hr [1, 4]: 7260 ng/mL
- concentration at 2 hr [1, 5]: 6310 ng/mL
- concentration at 4 hr [1, 4]: 1170 ng/mL
- concentration at 4 hr [1, 5]: 1730 ng/mL
- concentration at 8 hr [1, 4]: 367 ng/mL
- concentration at 8 hr [1, 5]: 314 ng/mL
- concentration at 24 hr ([1]; 50 mg/kg, PO 50 mg/kg): 83.3 ng/mL
- concentration at 0.083 hr [1, 6]: 188 ng/mL
- concentration at 0.083 hr [1, 7]: 246 ng/mL
- concentration at 0.25 hr [1, 6]: 2690 ng/mL
- concentration at 0.25 hr [1, 7]: 2790 ng/mL
- concentration at 0.5 hr [1, 7]: 7820 ng/mL
- concentration at 1 hr [1, 6]: 8840 ng/mL
- concentration at 1 hr [1, 7]: 7530 ng/mL
- concentration at 2 hr [1, 6]: 18600 ng/mL
- concentration at 2 hr [1, 7]: 15000 ng/mL
- concentration at 4 hr [1, 7]: 8190 ng/mL
- concentration at 8 hr [1, 7]: 633 ng/mL
- concentration at 24 hr ([1]; 100 mg/kg, PO 100 mg/kg): 60.8 ng/mL
- AUC(0-inf) ([1]; IV 5 mg/kg): 5280 ng·h/mL
- AUC(0-t) ([1]; IV 5 mg/kg): 5220 ng·h/mL
- C0 ([1]; IV 5 mg/kg): 13600 ng/mL
- MRT inf ([1]; IV 5 mg/kg): 0.73 h
- MRT last ([1]; IV 5 mg/kg): 0.594 h
- half-life ([1]; IV 5 mg/kg): 2.28 h
- Vd ([1]; IV 5 mg/kg, read-out: Vss): 0.69 L/kg
- AUC(0-inf) ([1]; PO 50 mg/kg): 26900 ng·h/mL
- AUC(0-t) ([1]; PO 50 mg/kg): 26400 ng·h/mL
- Cmax ([1]; PO 50 mg/kg): 7120 ng/mL
- MRT inf ([1]; PO 50 mg/kg): 3.79 h
- MRT last ([1]; PO 50 mg/kg): 3.31 h
- Tmax ([1]; PO 50 mg/kg): 1 h
- half-life ([1]; PO 50 mg/kg): 4.05 h
- AUC(0-inf) ([1]; PO 100 mg/kg): 63400 ng·h/mL
- AUC(0-t) ([1]; PO 100 mg/kg): 63100 ng·h/mL
- Cmax ([1]; PO 100 mg/kg): 15000 ng/mL
- MRT inf ([1]; PO 100 mg/kg): 3.49 h
- MRT last ([1]; PO 100 mg/kg): 3.37 h
- Tmax ([1]; PO 100 mg/kg): 2 h
- half-life ([1]; PO 100 mg/kg): 3.19 h
- relative levels of hyperphospho-4E-BP1 [2]: significantly lowers relative levels of hyperphospho-4E-BP1
- MCL-1 protein (eIF4E regulated) levels [3]: reduces
